As usually defined, the AC50 is the concentration at which the activity in the assay is half-maximal.

Read-outs that look alike come from different tables or passages of the source.

The values below come from patent US20230365592A1 (Agios Pharmaceuticals, Inc., priority 2022, published 2023).

The assay deals with T1, human PAH with the R408W mutation (Homo sapiens, UniProt P00439, R408W).
T1 construct: expressed in transfected cells
T1 sequence (P00439 1-452 R408W): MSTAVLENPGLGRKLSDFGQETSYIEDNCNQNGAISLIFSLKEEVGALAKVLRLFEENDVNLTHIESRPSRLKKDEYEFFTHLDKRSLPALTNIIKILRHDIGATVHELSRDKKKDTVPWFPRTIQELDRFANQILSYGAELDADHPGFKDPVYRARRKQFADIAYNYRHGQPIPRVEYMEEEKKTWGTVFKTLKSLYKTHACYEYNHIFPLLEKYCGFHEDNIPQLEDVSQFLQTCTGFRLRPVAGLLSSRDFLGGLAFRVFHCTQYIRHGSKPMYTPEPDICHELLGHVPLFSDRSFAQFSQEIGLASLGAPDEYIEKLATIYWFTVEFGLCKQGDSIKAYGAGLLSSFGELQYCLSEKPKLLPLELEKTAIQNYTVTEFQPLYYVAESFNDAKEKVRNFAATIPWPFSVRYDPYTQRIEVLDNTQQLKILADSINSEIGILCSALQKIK
The experiment in a line: Cell Based Phenylalanine Flux Assay.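 Note: after compound treatment, cells received sepiapterin plus isotope-labelled Phenylalanine for 4 hours, then labelled Tyrosine in the medium was quantified, 10-point 2-fold dilution series run in duplicate.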 The note with it: 24 hrs compound incubation, 13C-Tyrosine by LC-MS, average where tested multiple times.

Where [1] appears, read: A375 cells expressing human PAH R408W, read-out: AC50.

For `O=C(c1cnc(-c2cnccn2)o1)N1CCc2[nH]cnc2[C@H]1c1cc2c(F)cccn2n1` [Example 2516, (S)-(4-(4-fluoropyrazolo[1,5-a]pyridin-2-yl)-1,4,6,7-tetrahydro-5H-imidazo[4,5-c]pyridin-5-yl)(2-(pyrazin-2-yl)oxazol-5-yl)methanone], the AC50 under setting [1] fell in the range of 1000 to 5000 nM. As for `O=C(c1cnc(-c2cnccn2)o1)N1CCc2[nH]cnc2[C@@H]1c1cc2c(F)cccn2n1` [Example 2517, (R)-(4-(4-fluoropyrazolo[1,5-a]pyridin-2-yl)-1,4,6,7-tetrahydro-5H-imidazo[4,5-c]pyridin-5-yl)(2-(pyrazin-2-yl)oxazol-5-yl)methanone], the AC50 under setting [1] was over 5000 nM. For `CC(C)c1cccn2nc([C@@H]3c4nc[nH]c4CCN3c3nnc(C4CC(F)(F)C4)o3)cc12` [Example 2519, (S)-2-(3,3-difluorocyclobutyl)-5-(4-(4-isopropylpyrazolo[1,5-a]pyridin-2-yl)-1,4,6,7-tetrahydro-5H-imidazo[4,5-c]pyridin-5-yl)-1,3,4-oxadiazole], the half-maximal activity concentration (AC50) (AC50, A375 cells expressing human PAH R408W) lay in the range of 1000 to 5000 nM. In the case of `FC(F)c1cccc2cc([C@@H]3c4nc[nH]c4CCN3c3nnc(-c4cnccn4)o3)nn12` [Example 2521, (S)-2-(4-(7-(difluoromethyl)pyrazolo[1,5-a]pyridin-2-yl)-1,4,6,7-tetrahydro-5H-imidazo[4,5-c]pyridin-5-yl)-5-(pyrazin-2-yl)-1,3,4-oxadiazole], the AC50 under setting [1] was 1000 to 5000 nM. The same measure, in the same setting: with `CC(F)(F)c1nnc(N2CCc3[nH]cnc3[C@H]2c2cc3cccc(C(F)F)n3n2)o1` [Example 2523, (S)-2-(1,1-difluoroethyl)-5-(4-(7-(difluoromethyl)pyrazolo[1,5-a]pyridin-2-yl)-1,4,6,7-tetrahydro-5H-imidazo[4,5-c]pyridin-5-yl)-1,3,4-oxadiazole] the figure was 1000 to 5000 nM; with `O=C(c1nnc(-c2c(F)cccc2F)o1)N1CCc2[nH]cnc2C1c1cc2ccccn2n1` (stereo not shown) [Example 2524, (5-(2,6-difluorophenyl)-1,3,4-oxadiazol-2-yl)(4-(pyrazolo[1,5-a]pyridin-2-yl)-6,7-dihydro-1H-imidazo[4,5-c]pyridin-5(4H)-yl)methanone], 500 to 1000 nM. Regarding “(S)-(5-(2-fluoropropan-2-yl)-1,3.4-oxadiazol-2-yl)(4-(7-fluoropyrazolo[1,5-a]pyridin-2-yl)-6,7-dihydro-1H-imidazo[4,5-c(pyridin-5(4H)-yl)methanone [Example 1256]”, for the setting “A375 cells expressing human R408W PAH, read-out: AC50”, the AC50 was under 500 nM.
